± gives the expanded uncertainty stated by the source.
Assays:
[1] = Liquid, Closed cell (Static) method
[2] = xn = mol fraction of the nth substance listed; settings: 100 kPa, Liquid, x1 = 0.5; for viscosity: Concentric cylinders viscometry; for mass density: Vibrating tube method
[3] = molar heat capacity at constant pressure; xn = mol fraction of the nth substance listed; settings: 74.66 kPa, Liquid, DSC, x1 = 0.5

CCCCO [butan-1-ol]
[1]
Settings | vapor or sublimation pressure [kPa]
293.15 K | 0.56 ± 0.06
298.15 K | 0.84 ± 0.08
303.15 K | 1.23 ± 0.12
308.15 K | 1.76 ± 0.18
313.15 K | 2.44 ± 0.24
318.15 K | 3.33 ± 0.33
323.15 K | 4.35 ± 0.44
328.15 K | 5.33 ± 0.53

CCCCOC(=O)CC(O)(CC(=O)O)C(=O)OCCCC (configuration not stated) [2-hydroxy-1,2,3-propanetricarboxylic acid 1,2-dibutyl ester] + CCCCOC(=O)CC(O)(CC(=O)OCCCC)C(=O)O
Settings | mass density [kg/m3] | molar heat capacity at constant pressure [J/K/mol] | viscosity [mPa·s]
[2], 298.15 K | 1129.7 ± 57 | – | 3220 ± 200
[2], 303.15 K | 1124.2 ± 57 | – | 2120 ± 140
[2], 313.15 K | 1113.4 ± 56 | – | 1130 ± 110
[3], 321.5 K | – | 712.66 ± 76 | –
[3], 324.8 K | – | 718.9 ± 76 | –
[3], 328.2 K | – | 724.78 ± 77 | –
[3], 331.5 K | – | 730.1 ± 77 | –
[3], 334.8 K | – | 734.82 ± 78 | –
[3], 338.2 K | – | 739.17 ± 78 | –
[3], 341.5 K | – | 743.58 ± 79 | –
[3], 344.8 K | – | 747.72 ± 79 | –

— the NIST ThermoML archive (doi:10.1021/acs.jced.7b01064)
